Reference: US10723695B2, “Microbiocidal phenylamidine derivatives” (SYNGENTA PARTICIPATIONS AG, priority 2015, dated 2020)

How the values were obtained:
[1] = tested on: Puccinia recondita f. sp. tritici; experiment: Puccinia recondita f. sp. tritici / wheat / leaf disc curative (brown rust); format: in vivo; settings: foliar, 24 h, wheat leaf segments cv. Kanzler, curative (applied 1 day after inoculation), compared to untreated control leaf disks, read-out: disease control
Experimental: Puccinia recondita f. sp. tritici/Wheat/Leaf Disc Curative (Brown Rust) Wheat leaf segments cv. Kanzler are placed on agar in multiwell plates (24-well format). The leaf segments are inoculated with a spore suspension of the fungus. Plates were stored in darkness at 19° C. and 75% rh. The formulated test compound diluted in water was applied 1 day after inoculation.

[2] = tested on: Phakopsora pachyrhizi; experiment: Phakopsora pachyrhizi / soybean / leaf disk preventative (soybean rust); format: in vivo; settings: foliar, soybean leaf disks, compared to untreated control leaf disks, read-out: disease control
Experimental: Phakopsora pachyrhizi/Soybean/Leaf Disk Preventative (Soybean Rust) Four-week old soybean plants are sprayed in a spray chamber with the formulated test compound diluted in water. Leaf disks are cut from treated plants and placed on agar into 24-well plates one day after application. Leaf disks are inoculated by spraying them with a spore suspension on their lower leaf surface. After an incubation period in a climate cabinet of 24-36 hours in darkness at 20° C. and 75% rh, the leaf disks are then kept at 20° C. with 12 h light/day and 75% rh. The percentage leaf disk area covered by disease is assessed when an appropriate level of disease appears on untreated check plants (12-14 days after application).

[3] = tested on: Puccinia recondita f. sp. tritici; experiment: Puccinia recondita f. sp. tritici / wheat / leaf disc preventative (brown rust); format: in vivo; settings: foliar, wheat leaf segments cv. Kanzler, compared to untreated control leaf disks, read-out: disease control
Experimental: Puccinia recondita f. sp. tritici/Wheat/Leaf Disc Preventative (Brown Rust) Wheat leaf segments cv. Kanzler were placed on agar in multiwell plates (24-well format) and sprayed with the formulated test compound diluted in water. The leaf disks were inoculated with a spore suspension of the fungus 1 day after application. The inoculated leaf segments were incubated at 19° C. and 75% rh under a light regime of 12 h light/12 h darkness in a climate cabinet and the activity of a compound was assessed as percent disease control compared to untreated when an appropriate level of disease damage appears in untreated check leaf segments (7-9 days after application).

[4] = tested on: Blumeria graminis f. sp. tritici (Erysiphe graminis f. sp. tritici); experiment: Blumeria graminis f. sp. tritici / wheat / leaf disc preventative (powdery mildew on wheat); format: in vivo; settings: foliar, wheat leaf segments cv. Kanzler, compared to untreated control leaf disks, read-out: disease control
Excerpt: Blumeria graminis f. sp. tritici (Erysiphe graminis f. sp. tritici)/Wheat/Leaf Disc Preventative (Powdery Mildew on Wheat) Wheat leaf segments cv. Kanzler were placed on agar in a multiwell plate (24-well format) and sprayed with the formulated test compound diluted in water. The leaf disks were inoculated by shaking powdery mildew infected plants above the test plates 1 day after application.

Row | melting point | Structure (SMILES) | pest or weed control at 200 ppm [1] | pest or weed control at 200 ppm [2] | pest or weed control at 200 ppm [3] | pest or weed control at 200 ppm [4]
1 | 116 to 118 °C | COc1cc(/N=C/N(C)C(C)C)c(C)cc1C(O)(c1cc(F)ccc1C)C(F)(F)F (stereo not shown) [Compound E1.146] |  |  |  | 
2 |  | CCN(C)/C=N/c1cc(OC)c(C(O)C(F)(F)Cl)cc1C (stereo not shown) [Compound E1.118] | ≥ 80% | ≥ 80% | ≥ 80% | ≥ 80%
3 | 110 to 112 °C | COc1cc(/N=C/N(C)C(C)C)c(C)cc1C(O)(c1cc(F)cc(F)c1)C(F)(F)F (stereo not shown) [Compound E1.149] |  |  |  | 
4 |  | C=C(C)C(O)(c1cc(C)c(/N=C/N(C)CC)cc1OC)C(F)(F)F (stereo not shown) [Compound E1.078] | ≥ 80% | ≥ 80% | ≥ 80% | ≥ 80%
5 |  | C=CC(O)(c1cc(C)c(/N=C/N(C)CC)cc1OC)C(F)(F)F (stereo not shown) [Compound E1.077] | ≥ 80% | ≥ 80% | ≥ 80% | ≥ 80%
6 |  | CCN(C)/C=N/c1cc(OC)c(C(O)(c2ccc(C)s2)C(F)(F)F)cc1C (stereo not shown) [Compound E1.104] | ≥ 80% | ≥ 80% | ≥ 80% | ≥ 80%
7 |  | CCN(C)/C=N/c1cc(OC)c(C(O)c2ccccc2)cc1C (stereo not shown) [Compound E1.123] | ≥ 80% | ≥ 80% | ≥ 80% | ≥ 80%
8 | 95 to 97 °C | CCN(C)/C=N/c1cc(OC)c(C(O)(c2cc(F)ccc2C)C(F)(F)F)cc1C (stereo not shown) [Compound E1.145] |  |  |  | 
9 |  | CCCCCC(O)(c1cc(C)c(/N=C/N(C)CC)cc1OC)C(F)(F)F (stereo not shown) [Compound E1.065] | ≥ 80% | ≥ 80% | ≥ 80% | ≥ 80%
10 | 107 to 109 °C | CCN(C)/C=N/c1cc(OC)c(C(O)(c2cccc(F)c2C)C(F)(F)F)cc1C (stereo not shown) [Compound E1.132] |  |  |  | 
11 |  | CCN(C)/C=N/c1cc(OC)c(C(O)(c2cccs2)C(F)(F)F)cc1C (stereo not shown) [Compound E1.105] | ≥ 80% | ≥ 80% | ≥ 80% | ≥ 80%
12 | 119 to 121 °C | COc1cc(/N=C/N(C)C(C)C)c(C)cc1C(O)(c1c(F)cccc1F)C(F)(F)F (stereo not shown) [Compound E1.148] |  |  |  | 
13 | 119 to 120 °C | CCN(C)/C=N/c1cc(OC(C)C)c(C(O)(c2ccccc2)C(F)(F)F)cc1C (stereo not shown) [Compound E1.115] |  |  |  | 
14 |  | CCN(C)/C=N/c1cc(OC)c(C(O)(CC(C)C)C(F)(F)F)cc1C (stereo not shown) [Compound E1.051] | ≥ 80% | ≥ 80% | ≥ 80% | ≥ 80%
15 |  | CCN(C)/C=N/c1cc(OC)c(C(O)(C=C(C)C)C(F)(F)F)cc1C (stereo not shown) [Compound E1.076] | ≥ 80% | ≥ 80% | ≥ 80% | ≥ 80%
16 |  | CCN(C)/C=N/c1cc(OC)c(C(O)(CC(C)(C)C)C(F)(F)F)cc1C (stereo not shown) [Compound E1.066] | ≥ 80% | ≥ 80% | ≥ 80% | ≥ 80%
17 |  | CCN(C)/C=N/c1cc(OC)c(C(O)(Cc2ccccc2)C(F)(F)F)cc1C (stereo not shown) [Compound E1.086] | ≥ 80% | ≥ 80% | ≥ 80% | ≥ 80%
18 |  | CCN(C)/C=N/c1cc(OC)c(C(C)(O)c2ccccc2)cc1C (stereo not shown) [Compound E1.007, N-ethyl-N′-[4-(1-hydroxy-1-phenyl-ethyl)-5-methoxy-2-methyl-phenyl]-N-methyl-formamidine] | ≥ 80% | ≥ 80% | ≥ 80% | ≥ 80%
19 |  | CCN(C)/C=N/c1cc(OC)c(C(O)(c2cccnc2OC)C(F)(F)F)cc1C (stereo not shown) [Compound E1.112] | ≥ 80% | ≥ 80% | ≥ 80% | ≥ 80%
20 |  | CCN(C)/C=N/c1cc(OC)c(C(O)(Cc2ccnc(F)c2)C(F)(F)F)cc1C (stereo not shown) [Compound E1.101] | ≥ 80% | ≥ 80% | ≥ 80% | ≥ 80%
21 |  | CCN(C)/C=N/c1cc(OC)c(C(O)(C2CCC(C)(C)CC2)C(F)(F)F)cc1C (stereo not shown) [Compound E1.061] | ≥ 80% | ≥ 80% | ≥ 80% | ≥ 80%
22 |  | CCN(C)/C=N/c1cc(OC)c(C(O)(c2cccc(Cl)n2)C(F)(F)F)cc1C (stereo not shown) [Compound E1.106] | ≥ 80% | ≥ 80% | ≥ 80% | ≥ 80%
